Measured values reported in ChEMBL document CHEMBL1201862, “PubChem BioAssay data set” (2004).
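All cell lines were grown in 96-well plates and treated with compound for 48 hours. Abbreviation: GI50, concentration required for 50% inhibition of growth.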 Calls of active or inactive are those of the source. No stated cut-off is given here; in the data, active = GI50 up to about 1.1 µM and inactive = higher.

Columns and labels:
Assay in all cases: NCI-60 cell line screen, 48 h
A498 = tested on: A498
ACHN = tested on: ACHN
CCRF-CEM = tested on: CCRF-CEM
DU-145 = tested on: DU-145
EKVX = tested on: EKVX
HCC 2998 = tested on: HCC 2998
HCT-116 = tested on: HCT-116
M14 = tested on: M14
MCF7 = tested on: MCF7
MDA-MB-231 = tested on: MDA-MB-231
MDA-N = tested on: MDA-N
NCI-H23 = tested on: NCI-H23
NCI/ADR-RES = tested on: NCI/ADR-RES
OVCAR-8 = tested on: OVCAR-8
SF-539 = tested on: SF-539
SNB-19 = tested on: SNB-19
SNB-75 = tested on: SNB-75
TK-10 = tested on: TK-10
SN12C = tested on: SN12C
SR = tested on: SR

Measured: GI50

COc1ccc(NC(=S)Nc2c(C)n(C)n(-c3ccccc3)c2=O)cc1
inactive: A498 > 100 µM | ACHN > 100 µM | CCRF-CEM > 100 µM | DU-145 > 100 µM | EKVX > 100 µM | HCC 2998 > 100 µM | HCT-116 > 100 µM | M14 > 100 µM | MCF7 > 100 µM | MDA-MB-231 > 100 µM | MDA-N > 100 µM | NCI-H23 > 100 µM | NCI/ADR-RES > 100 µM | OVCAR-8 > 100 µM | SF-539 > 100 µM | SNB-19 > 100 µM | SNB-75 > 100 µM | TK-10 > 100 µM

C[n+]1ccccc1/C1=c2\cc/c([nH]2)=C(\c2cccc[n+]2C)C2=N/C(=C(/c3cccc[n+]3C)C3C=CC(N3)/C(c3cccc[n+]3C)=C3/C=CC1=N3)C=C2
inactive: A498 > 100 µM | ACHN > 100 µM | CCRF-CEM 3.26 µM | DU-145 > 100 µM | EKVX > 100 µM | HCC 2998 > 100 µM | HCT-116 46.3 µM | M14 > 100 µM | MCF7 > 100 µM | MDA-N > 100 µM | NCI-H23 > 100 µM | NCI/ADR-RES > 100 µM | OVCAR-8 > 100 µM | SF-539 > 100 µM | SN12C > 100 µM | SNB-19 > 100 µM | SR 15.6 µM | TK-10 > 100 µM

Oc1ccccc1/C=N/c1ccc(Oc2ccc(Cl)cc2)c(Cl)c1
inactive: A498 11.5 µM | ACHN 30.3 µM | CCRF-CEM 12.4 µM | DU-145 81.8 µM | EKVX 21.3 µM | HCC 2998 18.5 µM | HCT-116 16.7 µM | M14 18.5 µM | MCF7 41.7 µM | MDA-MB-231 16.1 µM | NCI-H23 18.6 µM | NCI/ADR-RES 19.3 µM | OVCAR-8 19.9 µM | SF-539 20.9 µM | SN12C 21.8 µM | SNB-19 17.4 µM | SNB-75 21.1 µM | SR 38.2 µM | TK-10 39.5 µM

CCN(CC)c1ccc2nc3ccc(/N=N/c4c(O)ccc5ccccc45)cc3[n+](-c3ccccc3)c2c1
inactive: ACHN > 100 µM | CCRF-CEM > 100 µM | DU-145 > 100 µM | EKVX > 100 µM | HCT-116 > 100 µM | M14 > 100 µM | MDA-MB-231 > 100 µM | MDA-N > 100 µM | NCI-H23 > 100 µM | NCI/ADR-RES > 100 µM | OVCAR-8 > 100 µM | SN12C > 100 µM | SNB-19 > 100 µM | SNB-75 > 100 µM | SR 1.47 µM | TK-10 > 100 µM

O=c1[nH]nc(Cc2ccccc2)n1CCO
inactive: A498 > 100 µM | ACHN > 100 µM | DU-145 > 100 µM | EKVX > 100 µM | HCC 2998 > 100 µM | HCT-116 > 100 µM | M14 > 100 µM | MCF7 > 100 µM | MDA-MB-231 > 100 µM | MDA-N > 100 µM | NCI-H23 > 100 µM | NCI/ADR-RES > 100 µM | OVCAR-8 > 100 µM | SF-539 > 100 µM | SN12C > 100 µM | SNB-19 > 100 µM | TK-10 > 100 µM

CC(C#N)NCc1ccc(C(C)NC(C)C#N)cc1 (centres undefined)
inactive: A498 > 100 µM | ACHN > 100 µM | CCRF-CEM > 100 µM | DU-145 > 100 µM | EKVX > 100 µM | HCC 2998 > 100 µM | HCT-116 > 100 µM | M14 > 100 µM | MCF7 > 100 µM | MDA-MB-231 > 100 µM | MDA-N > 100 µM | NCI-H23 > 100 µM | NCI/ADR-RES > 100 µM | OVCAR-8 > 100 µM | SF-539 > 100 µM | SN12C > 100 µM | SNB-19 > 100 µM | TK-10 > 100 µM

N#CCCSC(=S)C1CCCC1=N (centres undefined)
inactive: A498 > 100 µM | ACHN > 100 µM | DU-145 > 100 µM | EKVX > 100 µM | HCT-116 > 100 µM | M14 > 100 µM | MCF7 > 100 µM | MDA-MB-231 > 100 µM | MDA-N > 100 µM | NCI-H23 > 100 µM | NCI/ADR-RES > 100 µM | OVCAR-8 > 100 µM | SF-539 > 100 µM | SN12C > 100 µM | SNB-19 > 100 µM | SNB-75 3.88 µM | TK-10 > 100 µM

C(=N\c1ccc(-c2nc3ccccc3o2)cc1)/c1ccco1
inactive: A498 37.7 µM | ACHN 49.7 µM | DU-145 75 µM | EKVX 48.3 µM | HCT-116 59.6 µM | M14 79.6 µM | MCF7 91.2 µM | MDA-N 64 µM | NCI-H23 78.2 µM | NCI/ADR-RES 61.7 µM | OVCAR-8 > 100 µM | SF-539 > 100 µM | SN12C 61.9 µM | SNB-19 > 100 µM | SNB-75 49.1 µM | SR 65.9 µM
